Reference: US20220339167A1, “HORMONE D (VITAMIN D) AND ITS DERIVATIVES FOR THE TREATMENT AND PREVENTION OF CANCER” (Industrial Technologies & Biotechnologies, priority 2019, published 2022)

What was measured:
HL-60 = conditions: cited from earlier work
[1] = system: cancer or major cardiovascular events; conditions: 2000 IU daily for 5 years, initially healthy adults; cited from earlier work
normal colonic mucosa = conditions: six months; vitamin D3 800 IU daily with calcium 2000 mg daily; cited from earlier work
cancer = conditions: cited from earlier work
nonmelanoma skin cancers = assay: oral hormone D3 treatment of nonmelanoma skin cancers; format: in vivo; conditions: twelve nonmelanoma skin cancers; oral intake, 466 IU daily, between 6 and 8 months
colorectal cancer = conditions: 400 IU vitamin D3 with 1000 mg elemental calcium as calcium carbonate; average seven years follow-up; cited from earlier work

SMILES | cell differentiation (HL-60) | incidence of cancer or major cardiovascular events [1] | apoptosis in normal colonic mucosa (molecular markers) (normal colonic mucosa) | authors' conclusion on cancer prevention (cancer; high dose supplementation prescribed monthly) | participants with primary outcome of cancer (cancer; oral, initial bolus 200,000 IU then 100,000 IU monthly, up to 4 years, without calcium, placebo group 6.4%) | outcome of treated nonmelanoma skin cancers (nonmelanoma skin cancers) | interaction between risk of colorectal cancer and supplementation (colorectal cancer)
C=C1/C(=C\C=C2/CCC[C@]3(C)[C@@H]([C@H](C)CCCC(C)(C)O)CC[C@@H]23)C[C@@H](O)C[C@@H]1O [1α,25-dihydroxyvitamin D3] | induces HL-60 differentiation into macrophage-monocyte like cells | – | – | – | – | – | –
C=C1CC[C@H](O)C/C1=C/C=C1\CCC[C@]2(C)[C@@H]([C@H](C)CCCC(C)C)CC[C@@H]12 [hormone D3, cholecalciferol] | – | not reduce the incidence of cancer or major cardiovascular events | may enhance apoptosis in normal colonic mucosa | may no prevent cancer | 6.5% | all of them were resolved completely | no significant interaction
